Measured values reported in article PMC12891850 (Acta Pharmaceutica Sinica. B, 2025).

Molecular target: T1, aldehyde oxidase 1 (AOX1) (Homo sapiens, UniProt Q06278)
T1 sequence (Q06278 1-1338): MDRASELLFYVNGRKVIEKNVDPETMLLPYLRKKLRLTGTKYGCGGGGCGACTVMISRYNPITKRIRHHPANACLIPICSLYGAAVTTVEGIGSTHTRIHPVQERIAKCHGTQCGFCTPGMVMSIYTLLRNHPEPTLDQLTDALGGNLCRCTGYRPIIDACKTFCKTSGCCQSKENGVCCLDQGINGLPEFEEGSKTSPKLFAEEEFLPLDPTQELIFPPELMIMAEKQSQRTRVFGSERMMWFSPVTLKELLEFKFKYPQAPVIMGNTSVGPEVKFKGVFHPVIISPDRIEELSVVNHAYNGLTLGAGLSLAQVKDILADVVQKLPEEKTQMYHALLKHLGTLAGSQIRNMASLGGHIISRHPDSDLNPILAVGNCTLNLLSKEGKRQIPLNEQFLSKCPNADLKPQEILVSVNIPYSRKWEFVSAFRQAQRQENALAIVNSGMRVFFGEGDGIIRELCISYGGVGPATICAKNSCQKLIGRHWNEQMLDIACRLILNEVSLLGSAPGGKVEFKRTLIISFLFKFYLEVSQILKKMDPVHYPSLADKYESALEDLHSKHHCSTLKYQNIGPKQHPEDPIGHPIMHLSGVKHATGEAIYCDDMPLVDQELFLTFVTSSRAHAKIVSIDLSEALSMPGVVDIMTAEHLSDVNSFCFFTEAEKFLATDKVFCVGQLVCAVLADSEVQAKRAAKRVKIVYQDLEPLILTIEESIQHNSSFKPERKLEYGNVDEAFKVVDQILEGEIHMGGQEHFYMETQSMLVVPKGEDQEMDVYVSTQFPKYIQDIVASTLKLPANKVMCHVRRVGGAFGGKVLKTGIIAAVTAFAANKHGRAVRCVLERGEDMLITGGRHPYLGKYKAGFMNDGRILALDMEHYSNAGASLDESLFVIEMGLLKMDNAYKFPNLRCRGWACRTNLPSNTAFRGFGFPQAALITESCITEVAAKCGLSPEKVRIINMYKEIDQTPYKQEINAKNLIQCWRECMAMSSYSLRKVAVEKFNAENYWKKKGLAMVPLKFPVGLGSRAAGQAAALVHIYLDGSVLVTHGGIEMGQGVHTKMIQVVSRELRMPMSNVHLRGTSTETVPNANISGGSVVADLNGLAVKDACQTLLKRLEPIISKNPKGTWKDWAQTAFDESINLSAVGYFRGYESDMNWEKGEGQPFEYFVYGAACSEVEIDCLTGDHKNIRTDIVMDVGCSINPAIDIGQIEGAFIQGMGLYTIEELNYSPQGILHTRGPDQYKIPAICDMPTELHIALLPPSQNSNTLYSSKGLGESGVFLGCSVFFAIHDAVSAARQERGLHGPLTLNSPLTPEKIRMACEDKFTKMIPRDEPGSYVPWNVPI
Experiment: SPR
Assay type: binding

Kd: 42.7 µM
SMILES: CNC(=O)c1cc(Oc2ccc(NC(=O)Nc3ccc(Cl)c(C(F)(F)F)c3)c(F)c2)ccn1 [regorafenib]
